pIC50, pKi: −log10 of the molar value. Activity calls are given as the source filed them. No cut-off for these calls is given here.
Experiments:
[1] = target: T1, Peptidoglycan-N-acetylglucosamine deacetylase (Streptococcus pneumoniae (strain ATCC BAA-255 / R6), UniProt Q8DP63); assay: (§1) Inhibition of Streptococcus pneumoniae Pgda expressed in Escherichia coli BL21 (DE3) cells transformed with pET28bSpPgdA232-431 plasmid using acetoxymethyl-4-methylumbelliferone as substrate measured at 5 min intervals over 60 mins in presence of CoCl2 by fluorescence assay
T1 sequence (Q8DP63 whole entry): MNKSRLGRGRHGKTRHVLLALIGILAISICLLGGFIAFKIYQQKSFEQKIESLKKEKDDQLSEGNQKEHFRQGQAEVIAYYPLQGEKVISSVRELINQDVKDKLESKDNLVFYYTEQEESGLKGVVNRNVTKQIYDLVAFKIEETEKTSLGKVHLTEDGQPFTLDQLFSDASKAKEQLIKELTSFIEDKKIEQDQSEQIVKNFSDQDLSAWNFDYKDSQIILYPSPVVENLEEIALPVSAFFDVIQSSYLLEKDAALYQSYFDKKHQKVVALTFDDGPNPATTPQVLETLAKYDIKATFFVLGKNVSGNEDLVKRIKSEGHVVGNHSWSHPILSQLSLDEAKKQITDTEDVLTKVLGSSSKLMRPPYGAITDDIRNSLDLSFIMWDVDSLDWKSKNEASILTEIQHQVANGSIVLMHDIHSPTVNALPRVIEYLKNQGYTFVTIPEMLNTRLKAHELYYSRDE

[2] = target: T2, Poly-beta-1,6-N-acetyl-D-glucosamine N-deacetylase (Escherichia coli (strain K12), UniProt P75906); assay: (§2) Inhibition of Escherichia coli PgaB expressed in Escherichia coli BL21 (DE3) cells transformed with pET28 plasmid coding for PgaB42-655 using acetoxymethyl-4-methylumbelliferone as substrate measured at 2 min intervals over 10 mins in presence of CoCl2 by fluorescence assay
T2 sequence (P75906 whole entry): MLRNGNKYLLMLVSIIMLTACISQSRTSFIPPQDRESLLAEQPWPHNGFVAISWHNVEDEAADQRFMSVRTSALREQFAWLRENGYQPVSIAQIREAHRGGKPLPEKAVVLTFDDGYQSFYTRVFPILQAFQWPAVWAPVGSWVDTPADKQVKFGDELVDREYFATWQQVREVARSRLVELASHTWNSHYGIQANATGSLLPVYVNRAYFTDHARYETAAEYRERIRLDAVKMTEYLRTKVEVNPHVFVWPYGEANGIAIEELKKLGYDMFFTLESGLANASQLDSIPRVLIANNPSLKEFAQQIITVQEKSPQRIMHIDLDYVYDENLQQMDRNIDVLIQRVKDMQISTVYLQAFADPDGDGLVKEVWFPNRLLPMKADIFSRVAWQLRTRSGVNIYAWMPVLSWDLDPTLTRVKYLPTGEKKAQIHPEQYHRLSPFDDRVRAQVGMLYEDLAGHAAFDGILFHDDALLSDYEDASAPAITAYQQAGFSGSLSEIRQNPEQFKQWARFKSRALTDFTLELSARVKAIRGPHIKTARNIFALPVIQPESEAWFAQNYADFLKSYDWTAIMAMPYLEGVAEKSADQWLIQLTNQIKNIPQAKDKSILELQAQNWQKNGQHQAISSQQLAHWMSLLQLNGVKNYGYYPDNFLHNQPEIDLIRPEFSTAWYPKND

[3] = target: T3, Peptidoglycan-N-acetylglucosamine deacetylase (Streptococcus pneumoniae (strain ATCC BAA-255 / R6)) (UniProt Q8DP63); assay: Substrate activity at Streptococcus pneumoniae Pgda at 1 mM in presence of CoCl2 or ZnCl2 by fluorescamine assay deacetylase assay
T3 sequence (whole entry): T1 sequence (Q8DP63 whole entry)

[4] = target: T4, Poly-beta-1,6-N-acetyl-D-glucosamine N-deacetylase (Escherichia coli (strain K12)) (UniProt P75906); assay: Substrate activity at Escherichia coli PgaB at 1 mM in presence of CoCl2 or ZnCl2 by fluorescamine assay deacetylase assay
T4 sequence (whole entry): T2 sequence (P75906 whole entry)

[5] = target: T3, Peptidoglycan-N-acetylglucosamine deacetylase (Streptococcus pneumoniae (strain ATCC BAA-255 / R6)); assay: Substrate activity at Streptococcus pneumoniae Pgda at 5 mM in presence of CoCl2 or ZnCl2 by fluorescamine assay deacetylase assay
[6] = target: T4, Poly-beta-1,6-N-acetyl-D-glucosamine N-deacetylase (Escherichia coli (strain K12)); assay: Substrate activity at Escherichia coli PgaB at 5 mM in presence of CoCl2 or ZnCl2 by fluorescamine assay deacetylase assay
[7] = target: T4, Poly-beta-1,6-N-acetyl-D-glucosamine N-deacetylase (Escherichia coli (strain K12)); assay: Inhibition of Escherichia coli PgaB expressed in Escherichia coli BL21 (DE3) cells transformed with pET28 plasmid coding for PgaB42-655 at 10 mM using acetoxymethyl-4-methylumbelliferone as substrate measured at 2 min intervals over 10 mins in presence of CoCl2 by fluorescence assay
[8] = target: T3, Peptidoglycan-N-acetylglucosamine deacetylase (Streptococcus pneumoniae (strain ATCC BAA-255 / R6)); assay: Inhibition of Streptococcus pneumoniae Pgda expressed in Escherichia coli BL21 (DE3) cells transformed with pET28bSpPgdA232-431 plasmid at 10 mM using acetoxymethyl-4-methylumbelliferone as substrate measured at 5 min intervals over 60 mins in presence of CoCl2 by fluorescence assay
[9] = target: T1, Peptidoglycan-N-acetylglucosamine deacetylase; assay: as §1, with “plasmid using compound pre-incubated with 1Eq DTT and” for “plasmid”
[10] = target: T2, Poly-beta-1,6-N-acetyl-D-glucosamine N-deacetylase; assay: as §2, with “using compound pre-incubated with 1Eq DTT and using” for “using”
[11] = target: T2, Poly-beta-1,6-N-acetyl-D-glucosamine N-deacetylase; assay: as §2, with “using compound pre-incubated with 1Eq DTT and using” for “using”, “ZnCl2” for “CoCl2”
[12] = target: T1, Peptidoglycan-N-acetylglucosamine deacetylase; assay: as §1, with “using compound pre-incubated with 1Eq DTT and using” for “using”, “ZnCl2” for “CoCl2”
[13] = target: T3, Peptidoglycan-N-acetylglucosamine deacetylase (Streptococcus pneumoniae (strain ATCC BAA-255 / R6)); assay: Inhibition of Streptococcus pneumoniae Pgda expressed in Escherichia coli BL21 (DE3) cells transformed with pET28bSpPgdA232-431 plasmid at 200 to 1200 uM using acetoxymethyl-4-methylumbelliferone as substrate measured at 5 min intervals over 60 mins in presence of 6 uM ZnCl2 by fluorescence assay
[14] = target: T3, Peptidoglycan-N-acetylglucosamine deacetylase (Streptococcus pneumoniae (strain ATCC BAA-255 / R6)); assay: Inhibition of Streptococcus pneumoniae Pgda expressed in Escherichia coli BL21 (DE3) cells transformed with pET28bSpPgdA232-431 plasmid at 200 to 1200 uM using acetoxymethyl-4-methylumbelliferone as substrate measured at 5 min intervals over 60 mins in presence of 3 uM ZnCl2 by fluorescence assay
[15] = target: T1, Peptidoglycan-N-acetylglucosamine deacetylase; assay: Partial mixed inhibition of Streptococcus pneumoniae apo-Pgda using N,N',N\"-triacetyl chitotriose as substrate in presence of ZnCl2 by fluorescamine assay deacetylase assay based Dixon plot analysis
[16] = target: T3, Peptidoglycan-N-acetylglucosamine deacetylase (Streptococcus pneumoniae (strain ATCC BAA-255 / R6)); assay: Inhibition of Streptococcus pneumoniae Pgda expressed in Escherichia coli BL21 (DE3) cells transformed with pET28bSpPgdA232-431 plasmid at 200 to 1200 uM using acetoxymethyl-4-methylumbelliferone as substrate measured at 5 min intervals over 60 mins in presence of 200 uM ZnCl2 by fluorescence assay
[17] = target: T3, Peptidoglycan-N-acetylglucosamine deacetylase (Streptococcus pneumoniae (strain ATCC BAA-255 / R6)); assay: Inhibition of Streptococcus pneumoniae Pgda expressed in Escherichia coli BL21 (DE3) cells transformed with pET28bSpPgdA232-431 plasmid at 5 mM using acetoxymethyl-4-methylumbelliferone as substrate measured at 5 min intervals over 60 mins in presence of CoCl2 by fluorescence assay

| SMILES | pIC50 [1] | pIC50 [2] | Activity [5] | Activity [6] | other results |
| --- | --- | --- | --- | --- | --- |
| CC(=O)N[C@H]1[C@H](OCc2ccccc2)O[C@H](CO)[C@@H](O)[C@@H]1N=[N+]=[N-] | < 2.30 | < 2.30 |  |  | Activity [3]: inactive; Activity [4]: inactive |
| NS(=O)(=O)C[C@H]1[C@H](OCc2ccccc2)O[C@H](CO)[C@@H](O)[C@@H]1O | < 2.00 | < 2.00 |  |  |  |
| CC(=O)N[C@H]1[C@H](OCc2ccccc2)O[C@H](CO)[C@@H](O)[C@@H]1O | 1.96 | < 1.70 | inactive | inactive |  |
| NS(=O)(=O)C[C@H]1[C@H](OCc2ccccc2)O[C@H](CO)[C@@H](OCc2ccccc2)[C@@H]1O | < 2.30 | < 2.30 |  |  |  |
| O[C@H](CS)[C@H](O)CS |  |  |  |  | inhibition [7]: inactive; inhibition [8]: inactive |
| CC(=O)N[C@H]1[C@H](OCc2ccccc2)O[C@H](CO)[C@@H](O)[C@@H]1N | < 2.00 | < 2.00 | inactive | inactive |  |
| CC(=O)N[C@H]1[C@H](OCc2ccccc2)O[C@H](CO)[C@@H](O)[C@@H]1S |  |  | inactive | inactive | pIC50 [9]: < 2.10; pIC50 [10]: < 2.10; pIC50 [11]: 2.96; pIC50 [12]: 2.30 |
| CS(=O)(=O)N[C@H]1[C@H](OCc2ccccc2)O[C@H](CO)[C@@H](O)[C@@H]1S |  |  |  |  | pIC50 [9]: < 3.00; pIC50 [10]: < 3.00; Activity [3]: inactive; pIC50 [11]: < 3.00; pIC50 [12]: < 3.00; Activity [4]: inactive |
| CC(=S)N[C@H]1[C@H](OCc2ccccc2)O[C@H](CO)[C@@H](O)[C@@H]1S |  |  |  |  | pIC50 [9]: < 3.00; inhibition [13]: Active; inhibition [14]: inactive; pIC50 [10]: < 3.00; pKi [15]: 5.54; Activity [3]: inactive; pIC50 [11]: 3.85; pIC50 [12]: 4.96; Activity [4]: inactive; inhibition [16]: Active |
| CC(=S)N[C@H]1[C@H](OCc2ccccc2)O[C@H](CO)[C@@H](O)[C@@H]1O | < 2.00 | < 2.00 | inactive | inactive |  |
| COP(=O)(O)C[C@H]1[C@H](OCc2ccccc2)O[C@H](CO)[C@@H](OCc2ccccc2)[C@@H]1O | < 2.30 | < 2.30 |  |  | inhibition [17]: inactive |
| COP(=O)(O)C[C@H]1[C@H](OCc2ccccc2)O[C@H](COCc2ccccc2)[C@@H](O)[C@@H]1O | < 2.30 | < 2.30 |  |  | inhibition [17]: inactive |
| COP(=O)(O)C[C@H]1[C@H](OCc2ccccc2)O[C@H](CO)[C@@H](O)[C@@H]1O | 2.31 | < 2.00 |  |  |  |

Reference: ChEMBL document CHEMBL4261622, “Monosaccharide inhibitors targeting carbohydrate esterase family 4 de-N-acetylases” (Bioorg Med Chem, 2018)
